One experiment addresses T1, SETD2(1434-1711) (Homo sapiens, UniProt Q9BYW2).
T1 construct: SETD2 (1434-1711) Assay; catalogue N/A
T1 sequence (Q9BYW2 1434-1711): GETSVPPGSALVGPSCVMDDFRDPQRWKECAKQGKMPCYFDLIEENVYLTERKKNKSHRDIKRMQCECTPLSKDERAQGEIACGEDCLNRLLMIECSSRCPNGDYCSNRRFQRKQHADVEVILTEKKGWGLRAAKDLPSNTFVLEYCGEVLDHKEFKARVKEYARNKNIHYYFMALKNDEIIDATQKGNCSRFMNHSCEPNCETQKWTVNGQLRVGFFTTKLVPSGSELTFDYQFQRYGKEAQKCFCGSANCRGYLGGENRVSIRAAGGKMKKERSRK
Nature of the experiment: SETD2 (1434-1711) assay. The class given is biochemical. The note with it: read-out: SETD2 (1434-1711).
On to `C/C(=N\C#N)N1CCN([C@H]2CCC[C@@H](NC(=O)c3cc4c(F)ccc(C)c4[nH]3)C2)CC1` [compound 1116], for which the IC50 was 20 nM.

For `Cc1ccc(F)c2cc(C(=O)Nc3cccc(N4CCCN(C)CC4)c3)[nH]c12` [compound 279], the IC50 stood at 40 nM.

Take `Cc1ccc(F)c2cc(C(=O)Nc3cccc(N4CCn5ccnc5C4)c3)[nH]c12` [compound 233]: the IC50 was 50 nM.

`Cc1ccc(F)c2cc(C(=O)NC3CCCC(N4CCC(N(C)C(=O)C(C)(C)O)C4)C3)[nH]c12` (centres unmarked) [compound 1146]: the IC50 was 40 nM.

Consider `CC(=O)N1CCCN([C@@H]2CCC[C@@H](NC(=O)c3cc4c(F)ccc(C)c4[nH]3)C2)CC1` [compound 980], for which the IC50 was 900 nM.

As for `Cc1ccnnc1C(NC(=O)c1cc2c(F)ccc(C)c2[nH]1)C1CC1` (centres unmarked) [compound 450], the IC50 was found to be 2300 nM.

In the case of `Cc1ccc(F)c2cc(C(=O)NC3CCCC(N4CCC(=O)N(C)CC4)C3)[nH]c12` (centres unmarked) [compound 944], the IC50 is 30 nM.

For the compound `Cc1ccc(F)c2cc(C(=O)Nc3cccc(N4CCC(N(C)C)C(C)C4)c3)[nH]c12` (centres unmarked) [compound 99], the IC50 worked out at 30 nM.

On to `Cc1cc(CC(=O)N2CCN(C)CC2)cnc1C(NC(=O)c1cc2cccc(C)c2[nH]1)C1CC1` (centres unmarked) [compound 441], for which the IC50 was 4400 nM.

Take `Cc1ccc(F)c2cc(C(=O)N[C@@H]3CCC[C@H](N4CCN5C(=O)COCC5C4)C3)[nH]c12` (some centres unmarked) [compound 1045]: the IC50 was 8 nM.

Regarding `Cc1ccc(F)c2cc(C(=O)NC3CCCc4cccnc43)[nH]c12` (centres unmarked) [compound 498], the IC50 was 9400 nM.

For the compound `CCOC(=O)N1CCN([C@H]2CCC[C@@H](NC(=O)c3cc4c(F)ccc(C)c4[nH]3)C2)CC1` [compound 824], the IC50 turned out to be 10 nM.

As to `Cc1ccc(F)c2cc(C(=O)N[C@@H]3CCC[C@@H](c4cccnc4)C3)[nH]c12` [compound 902], the IC50 was found to be 4200 nM.

Consider `Cc1ccc(F)c2cc(C(=O)NC3CCCC(N4CCC5(CC4)COC(=O)N5)C3)[nH]c12` (centres unmarked) [compound 895], for which the IC50 amounted to 50 nM.

As for `Cc1ccc(F)c2cc(C(=O)N[C@@H]3CCC[C@H](N4CCC(N(C)C(=O)CO)C4)C3)[nH]c12` (some centres unmarked) [compound 934], the IC50 turned out to be 10 nM.

In the case of `COCC(=O)N(C)[C@@H]1CCN([C@H]2CCC[C@@H](NC(=O)c3cc4c(F)ccc(C)c4[nH]3)C2)C1` [compound 1042], the IC50 came out at 20 nM.

On to `CCC(=O)N1CCN([C@H]2CCC[C@@H](NC(=O)c3cc4c(F)ccc(C)c4[nH]3)C2)CC1` [compound 839], for which the IC50 was found to be 10 nM.

Take `Cc1ccc(F)c2cc(C(=O)NC3CNCCc4ccccc43)[nH]c12` (centres unmarked) [compound 364]: the IC50 was 2000 nM.

In the case of `Cc1ccc(F)c2cc(C(=O)Nc3cccc(N4CCC5(CCCN5CC(F)F)CC4)c3)[nH]c12` [compound 142], the IC50 turned out to be 40 nM.

`Cc1ccc(F)c2cc(C(=O)Nc3cccc(CCO)c3)[nH]c12` [compound 341]: the IC50 came out at 200 nM.

In the case of `Cc1cccc2cc(C(=O)Nc3ccc4nc(CN5CCNCC5)ncc4c3)[nH]c12` [compound 541], the IC50 came to 2000 nM.

In the case of `Cc1ccc(F)c2cc(C(=O)Nc3cccc([C@@H]4CCN5C(=O)CC[C@@H]5C4)c3)[nH]c12` [compound 51], the IC50 stood at 20 nM.

Turning to `Cc1ccc(F)c2cc(C(=O)Nc3cccc(-c4cnn(CCN5CCOCC5)c4)c3)[nH]c12` [compound 164], the IC50 stood at 100 nM.

Consider `Cc1ccc(F)c2cc(C(=O)N[C@H]3CCC[C@@H](c4cccnc4)C3)[nH]c12` [compound 905], for which the IC50 was 2900 nM.

For `COCC(=O)N1CCN(c2cccc(NC(=O)c3cc4c(F)ccc(C)c4[nH]3)c2)CC1` [compound 44], the IC50 was 40 nM.

Another experiment deals with H3K36me3 in A549 cells. Nature of the experiment: In-Cell Western (ICW) assay of SETD2 inhibitors (A549 assay). In kind it is cell-based, human. The note with it: A549 cells; read-out: SETD2 A549. The essentials:
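A549 cells seeded at 4,000/well onto compound and incubated 3 days at 37° C. Methanol-fixed cells stained overnight at 4° C with anti-H3K36me3 (1:1000), then IRDye 800CW secondary with DRAQ5 DNA counterstain. Plates read by Licor imaging at 700 and 800 channels.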
For `Cc1ccc(F)c2cc(C(=O)Nc3cccc(N4CCn5ccnc5C4)c3)[nH]c12` [compound 233], the IC50 is 500 nM.

For `Cc1ccc(F)c2cc(C(=O)NC3CCCC(N4CCC(N(C)C(=O)C(C)(C)O)C4)C3)[nH]c12` (centres unmarked) [compound 1146], the IC50 came to 200 nM.

As for `Cc1ccc(F)c2cc(C(=O)NC3CCCC(N4CCC(=O)N(C)CC4)C3)[nH]c12` (centres unmarked) [compound 944], the IC50 worked out at 100 nM.

On to `Cc1ccc(F)c2cc(C(=O)Nc3cccc(N4CCC(N(C)C)C(C)C4)c3)[nH]c12` (centres unmarked) [compound 99], for which the IC50 stood at 200 nM.

For the compound `Cc1cc(CC(=O)N2CCN(C)CC2)cnc1C(NC(=O)c1cc2cccc(C)c2[nH]1)C1CC1` (centres unmarked) [compound 441], the IC50 was 5100 nM.

As for `Cc1ccc(F)c2cc(C(=O)NC3CCCc4cccnc43)[nH]c12` (centres unmarked) [compound 498], the IC50 came to 13800 nM.

Consider `CCOC(=O)N1CCN([C@H]2CCC[C@@H](NC(=O)c3cc4c(F)ccc(C)c4[nH]3)C2)CC1` [compound 824], for which the IC50 is 40 nM.

In the case of `CCC(=O)N1CCN([C@H]2CCC[C@@H](NC(=O)c3cc4c(F)ccc(C)c4[nH]3)C2)CC1` [compound 839], the IC50 is 40 nM.

Take `Cc1ccc(F)c2cc(C(=O)NC3CNCCc4ccccc43)[nH]c12` (centres unmarked) [compound 364]: the IC50 is greater than 2000 nM.

`Cc1ccc(F)c2cc(C(=O)Nc3cccc(CCO)c3)[nH]c12` [compound 341]: the IC50 came out at 1700 nM.

Regarding `Cc1cccc2cc(C(=O)Nc3ccc4nc(CN5CCNCC5)ncc4c3)[nH]c12` [compound 541], the IC50 was greater than 25000 nM.

Take `Cc1ccc(F)c2cc(C(=O)Nc3cccc([C@@H]4CCN5C(=O)CC[C@@H]5C4)c3)[nH]c12` [compound 51]: the IC50 came to 100 nM.

The experiment is the same for the next values; noted with them: Homo sapiens; A549 cells; read-out: SETD2 A549.
For `C/C(=N\C#N)N1CCN([C@H]2CCC[C@@H](NC(=O)c3cc4c(F)ccc(C)c4[nH]3)C2)CC1` [compound 1116], the IC50 amounted to 50 nM.

Turning to `Cc1ccc(F)c2cc(C(=O)Nc3cccc(N4CCCN(C)CC4)c3)[nH]c12` [compound 279], the IC50 was determined as 900 nM.

`CC(=O)N1CCCN([C@@H]2CCC[C@@H](NC(=O)c3cc4c(F)ccc(C)c4[nH]3)C2)CC1` [compound 980]: the IC50 was greater than 2000 nM.

Take `Cc1ccnnc1C(NC(=O)c1cc2c(F)ccc(C)c2[nH]1)C1CC1` (centres unmarked) [compound 450]: the IC50 stood at 5600 nM.

Take `Cc1ccc(F)c2cc(C(=O)N[C@@H]3CCC[C@H](N4CCN5C(=O)COCC5C4)C3)[nH]c12` (some centres unmarked) [compound 1045]: the IC50 worked out at 30 nM.

With `Cc1ccc(F)c2cc(C(=O)N[C@@H]3CCC[C@@H](c4cccnc4)C3)[nH]c12` [compound 902], the IC50 is greater than 2000 nM.

With `Cc1ccc(F)c2cc(C(=O)NC3CCCC(N4CCC5(CC4)COC(=O)N5)C3)[nH]c12` (centres unmarked) [compound 895], the IC50 is 1500 nM.

`Cc1ccc(F)c2cc(C(=O)N[C@@H]3CCC[C@H](N4CCC(N(C)C(=O)CO)C4)C3)[nH]c12` (some centres unmarked) [compound 934]: the IC50 was 100 nM.

For the compound `COCC(=O)N(C)[C@@H]1CCN([C@H]2CCC[C@@H](NC(=O)c3cc4c(F)ccc(C)c4[nH]3)C2)C1` [compound 1042], the IC50 is 200 nM.

For `Cc1ccc(F)c2cc(C(=O)Nc3cccc(N4CCC5(CCCN5CC(F)F)CC4)c3)[nH]c12` [compound 142], the IC50 turned out to be 300 nM.

Take `Cc1ccc(F)c2cc(C(=O)Nc3cccc(-c4cnn(CCN5CCOCC5)c4)c3)[nH]c12` [compound 164]: the IC50 amounted to 300 nM.

With `Cc1ccc(F)c2cc(C(=O)N[C@H]3CCC[C@@H](c4cccnc4)C3)[nH]c12` [compound 905], the IC50 was greater than 2000 nM.

For `COCC(=O)N1CCN(c2cccc(NC(=O)c3cc4c(F)ccc(C)c4[nH]3)c2)CC1` [compound 44], the IC50 worked out at 100 nM.

The values are drawn from patent US12116358B2, “Substituted indoles and methods of use thereof” (EPIZYME, INC., priority 2018, dated 2024).
